Reference: patent publication US12543734B2, “Herbicidal compositions comprising dimethenamid” (BASF SE, priority 2024, dated 2026)

Tests used:
Format in all cases: in vivo
Zea mays (ZEAMX) [1] = assay: Example 4 post-emergence field trial (1% MSO and AMS); settings: 21-24 DAT, B-2 735 g ai/ha
Procedure: (§1) In the examples below, using the method of S. R. Colby (1967) “Calculating synergistic and antagonistic responses of herbicide combinations”, Weeds 15, p. 22ff., the value E, which is expected if the activity of the individual active compounds is only additive, was calculated:
(§2) [formula] • where • X=percent activity using active herbicide A at an application rate a; • Y=percent activity using active herbicide B (e.g. DMTA-p) at an application rate b; • E=expected activity (in %) by A+B at application rates a+b.
(§3) If the value found experimentally is higher than the value E calculated according to Colby, a synergistic effect is present.
(§4) On field test sites, natural weed infestation or seeded weeds were treated post-emergence of the weeds.
(§5) In the field trials, the weeds were treated as indicated below.
(§6) In the following experiments, the herbicidal activity for the individual herbicidal compositions (solo and mixture applications) was assessed at the indicated days after treatment (DAT). The assessments for the damage on undesired weeds caused by the composition was carried out using a scale from 0 to 100%, compared to the untreated control plants. Here, 0 means no damage and 100 means complete destruction of the plants.
(§7) Post-Emergence Application of Herbicide A-1 (A-1) and Dimethenamid-P (DMTA-p; B-2) in Field Trials
(§8) Herbicide A-1 (100 g/l) and DMTA-p (720 g/l) were, together with addition of 1% MSO (methylated sed oil) and AMS (ammonium sulfate) as adjuvant, formulated in water as distribution medium (water volume 200 l/ha) and sprayed with commercial flat fan nozzles.

Eleusine indica (ELEIN) [2] = assay: as above; settings: height 15-20 cm, 21-24 DAT, A-1 12.5 g ai/ha, B-2 735 g ai/ha
Procedure: as §1, §2, §3, §4, §5, §6, §7, §8

Helanthus annuus (HELAN) [3] = assay: as above; settings: height 10-20 cm, 20 DAT, A-1 12.5 g ai/ha, B-2 735 g ai/ha
Procedure: as §1, §2, §3, §4, §5, §6, §7, §8

Glycine max (GLXMA) [4] = assay: as above; settings: 21-24 DAT, A-1 12.5 g ai/ha, B-2 735 g ai/ha
Procedure: as §1, §2, §3, §4, §5, §6, §7, §8

Sorghum bicolor (SORVU) [5] = assay: as above; settings: height 15-20 cm, 20 DAT, A-1 12.5 g ai/ha, B-2 735 g ai/ha
Procedure: as §1, §2, §3, §4, §5, §6, §7, §8

Zea mays (ZEAMX) [6] = assay: Example 3 post-emergence field trial, volunteer crop plants (1% MSO); settings: height 43-51 cm, 20 DAT, B-2 735 g ai/ha
Procedure: as §1, §2, §3, §4, §5, §6, §7
(§9) Herbicide A-1 (100 g/l) and DMTA-p (720 g/l) were, together with addition of 1% MSO (methylated sed oil) as adjuvant, formulated in water as distribution medium (water volume 200 l/ha) and sprayed with commercial flat fan nozzles.

Glycine max (GLXMA) [7] = assay: as above; settings: height 6-15 cm, 20 DAT, A-1 30 g ai/ha, B-2 735 g ai/ha
Procedure: as §1, §2, §3, §4, §5, §6, §7, §9

[8] = tested on: Amaranthus palmeri (AMAPA); assay: Example 2 post-emergence field trial (1% MSO and AMS); settings: B-2 735 g ai/ha
Procedure: as §1, §2, §3, §4, §5, §6, §7, §8

[9] = tested on: Chenopodium album (CHEAL); assay: as above; settings: height 17-23 cm, 21-24 DAT, A-1 12.5 g ai/ha, B-2 735 g ai/ha
Procedure: as §1, §2, §3, §4, §5, §6, §7, §8

[10] = tested on: Digitaria sanguinalis (DIGSA); assay: as above; settings: height 2-8 cm, 18-21 DAT, A-1 25 g ai/ha, B-2 735 g ai/ha
Procedure: as §1, §2, §3, §4, §5, §6, §7, §8

Eleusine indica (ELEIN) [11] = assay: as above; settings: B-2 735 g ai/ha
Procedure: as §1, §2, §3, §4, §5, §6, §7, §8

[12] = tested on: Portulaca oleracea (POROL); assay: as above; settings: B-2 735 g ai/ha
Procedure: as §1, §2, §3, §4, §5, §6, §7, §8

[13] = tested on: Echinochloa crus-galli (ECHCG); assay: as above; settings: height 7-15 cm, 18-21 DAT, B-2 735 g ai/ha
Procedure: as §1, §2, §3, §4, §5, §6, §7, §8

[14] = tested on: Abutilon theophrasti (ABUTH); assay: as above; settings: height 10-20 cm, 21-24 DAT, A-1 12.5 g ai/ha, B-2 735 g ai/ha
Procedure: as §1, §2, §3, §4, §5, §6, §7, §8

[15] = tested on: Amaranthus retroflexus (AMARE); assay: as above; settings: B-2 735 g ai/ha
Procedure: as §1, §2, §3, §4, §5, §6, §7, §8

[16] = tested on: Amaranthus tamariscinus (AMATA); assay: as above; settings: B-2 735 g ai/ha
Procedure: as §1, §2, §3, §4, §5, §6, §7, §8

[17] = tested on: Amaranthus palmeri (AMAPA); assay: Example 1 post-emergence field trial (1% MSO); settings: 20-21 DAT, B-2 735 g ai/ha
Procedure: as §1, §2, §3, §4, §5, §6, §7, §9

Setaria faberi (SETFA) = assay: Example 1 post-emergence field trial (1% MSO); settings: height 7-13 cm, 20-21 DAT, A-1 20 g ai/ha, B-2 735 g ai/ha
Procedure: as §1, §2, §3, §4, §5, §6, §7, §9

[18] = tested on: Digitaria sanguinalis (DIGSA); assay: Example 1 post-emergence field trial (1% MSO); settings: height 2-13 cm, 20-21 DAT, A-1 20 g ai/ha, B-2 735 g ai/ha
Procedure: as §1, §2, §3, §4, §5, §6, §7, §9

[19] = tested on: Echinochloa crus-galli (ECHCG); assay: Example 1 post-emergence field trial (1% MSO); settings: height 10-15 cm, 20-21 DAT, B-2 735 g ai/ha
Procedure: as §1, §2, §3, §4, §5, §6, §7, §9

Helanthus annuus (HELAN) [20] = assay: Example 1 post-emergence field trial (1% MSO); settings: height 20-25 cm, 20-21 DAT, A-1 20 g ai/ha, B-2 735 g ai/ha
Procedure: as §1, §2, §3, §4, §5, §6, §7, §9

[21] = tested on: Amaranthus tamariscinus (AMATA); assay: Example 1 post-emergence field trial (1% MSO); settings: height 20-25 cm, 20-21 DAT, A-1 20 g ai/ha, B-2 735 g ai/ha
Procedure: as §1, §2, §3, §4, §5, §6, §7, §9

Setaria viridis (SETVI) = assay: Example 1 post-emergence field trial (1% MSO); settings: height 7-13 cm, 20-21 DAT, A-1 20 g ai/ha, B-2 735 g ai/ha
Procedure: as §1, §2, §3, §4, §5, §6, §7, §9

Sorghum bicolor (SORVU) [22] = assay: Example 1 post-emergence field trial (1% MSO); settings: height 25-30 cm, 20-21 DAT, A-1 30 g ai/ha, B-2 735 g ai/ha
Procedure: as §1, §2, §3, §4, §5, §6, §7, §9

[23] = height 7-15 cm, 18-21 DAT, A-1 12.5 g ai/ha
[24] = height 7-15 cm, 18-21 DAT, A-1 25 g ai/ha
[25] = height 20-25 cm, 21-24 DAT, A-1 12.5 g ai/ha
[26] = height 7-10 cm, 18-21 DAT, A-1 12.5 g ai/ha
[27] = height 7-10 cm, 18-21 DAT, A-1 25 g ai/ha
[28] = height 15-20 cm, 21-24 DAT, A-1 25 g ai/ha
[29] = height 2-13 cm, 18-21 DAT, A-1 25 g ai/ha
[30] = height 10-20 cm, 21-24 DAT, A-1 12.5 g ai/ha
[31] = height 10-20 cm, 21-24 DAT, A-1 25 g ai/ha
[32] = height 17-28 cm, 21-24 DAT, A-1 12.5 g ai/ha
[33] = height 5-13 cm, 18-21 DAT, A-1 12.5 g ai/ha
[34] = height 10-18 cm, A-1 20 g ai/ha
[35] = height 10-18 cm, A-1 30 g ai/ha

COC[C@H](C)N(C(=O)CCl)c1c(C)csc1C [B-2, dimethenamid-P]
% herbicidal activity (Zea mays (ZEAMX) [1]; A-1 12.5 g ai/ha): 0%
% herbicidal activity (Zea mays (ZEAMX) [1]; A-1 25 g ai/ha): 0%
% herbicidal activity (Eleusine indica (ELEIN) [2]): 0%
% herbicidal activity (Helanthus annuus (HELAN) [3]): 0%
% herbicidal activity (Glycine max (GLXMA) [4]): 0%
% herbicidal activity (Sorghum bicolor (SORVU) [5]): 0%
% herbicidal activity (Zea mays (ZEAMX) [6]; A-1 20 g ai/ha): 0%
% herbicidal activity (Zea mays (ZEAMX) [6]; A-1 30 g ai/ha): 0%
% herbicidal activity (Glycine max (GLXMA) [7]): 0%
% herbicidal activity [8, 23]: 0%
% herbicidal activity [8, 24]: 0%
% herbicidal activity [8, 25]: 0%
% herbicidal activity [9]: 0%
% herbicidal activity [10]: 5%
% herbicidal activity (Eleusine indica (ELEIN) [11]; [26]): 0%
% herbicidal activity (Eleusine indica (ELEIN) [11]; [27]): 0%
% herbicidal activity (Eleusine indica (ELEIN) [11]; [28]): 0%
% herbicidal activity [12, 29]: 7%
% herbicidal activity [12, 30]: 28%
% herbicidal activity [12, 31]: 28%
% herbicidal activity ([13]; A-1 12.5 g ai/ha): 0%
% herbicidal activity ([13]; A-1 25 g ai/ha): 0%
% herbicidal activity [14]: 35%
% herbicidal activity [15, 24]: 0%
% herbicidal activity [15, 31]: 47%
% herbicidal activity [15, 32]: 0%
% herbicidal activity [16, 33]: 15%
% herbicidal activity [16, 24]: 0%
% herbicidal activity [16, 31]: 47%
% herbicidal activity [16, 32]: 0%
% herbicidal activity ([17]; height 2-12 cm, A-1 20 g ai/ha): 37%
% herbicidal activity ([17]; height 2-12 cm, A-1 30 g ai/ha): 37%
% herbicidal activity [17, 34]: 0%
% herbicidal activity [17, 35]: 0%
% herbicidal activity (Setaria faberi (SETFA)): 0%
% herbicidal activity [18]: 0%
% herbicidal activity ([19]; A-1 20 g ai/ha): 0%
% herbicidal activity ([19]; A-1 30 g ai/ha): 0%
% herbicidal activity (Helanthus annuus (HELAN) [20]): 0%
% herbicidal activity [21]: 0%
% herbicidal activity (Setaria viridis (SETVI)): 0%
% herbicidal activity (Sorghum bicolor (SORVU) [22]): 0%

CCOC(=O)COc1ccccc1Oc1nc(-n2c(=O)cc(C(F)(F)F)n(C)c2=O)c(F)cc1Cl [A-1, ethyl 2-[2-[[3-chloro-5-fluoro-6-[3-methyl-2,6-dioxo-4-(trifluoromethyl)pyrimidin-1-yl]-2-pyridyl]oxy]phenoxy]acetate]
% herbicidal activity (Zea mays (ZEAMX) [1]; A-1 12.5 g ai/ha): 67%
% herbicidal activity (Zea mays (ZEAMX) [1]; A-1 25 g ai/ha): 83%
% herbicidal activity (Eleusine indica (ELEIN) [2]): 27%
% herbicidal activity (Helanthus annuus (HELAN) [3]): 93%
% herbicidal activity (Glycine max (GLXMA) [4]): 90%
% herbicidal activity (Sorghum bicolor (SORVU) [5]): 87%
% herbicidal activity (Zea mays (ZEAMX) [6]; A-1 20 g ai/ha): 72%
% herbicidal activity (Zea mays (ZEAMX) [6]; A-1 30 g ai/ha): 88%
% herbicidal activity (Glycine max (GLXMA) [7]): 98%
% herbicidal activity [8, 23]: 42%
% herbicidal activity [8, 24]: 64%
% herbicidal activity [8, 25]: 74%
% herbicidal activity [9]: 77%
% herbicidal activity [10]: 97%
% herbicidal activity (Eleusine indica (ELEIN) [11]; [26]): 18%
% herbicidal activity (Eleusine indica (ELEIN) [11]; [27]): 78%
% herbicidal activity (Eleusine indica (ELEIN) [11]; [28]): 55%
% herbicidal activity [12, 29]: 93%
% herbicidal activity [12, 30]: 80%
% herbicidal activity [12, 31]: 87%
% herbicidal activity ([13]; A-1 12.5 g ai/ha): 82%
% herbicidal activity ([13]; A-1 25 g ai/ha): 85%
% herbicidal activity [14]: 98%
% herbicidal activity [15, 24]: 85%
% herbicidal activity [15, 31]: 82%
% herbicidal activity [15, 32]: 67%
% herbicidal activity [16, 33]: 90%
% herbicidal activity [16, 24]: 85%
% herbicidal activity [16, 31]: 77%
% herbicidal activity [16, 32]: 67%
% herbicidal activity ([17]; height 2-12 cm, A-1 20 g ai/ha): 99%
% herbicidal activity ([17]; height 2-12 cm, A-1 30 g ai/ha): 99%
% herbicidal activity [17, 34]: 77%
% herbicidal activity [17, 35]: 80%
% herbicidal activity (Setaria faberi (SETFA)): 97%
% herbicidal activity [18]: 97%
% herbicidal activity ([19]; A-1 20 g ai/ha): 77%
% herbicidal activity ([19]; A-1 30 g ai/ha): 80%
% herbicidal activity (Helanthus annuus (HELAN) [20]): 99%
% herbicidal activity [21]: 70%
% herbicidal activity (Setaria viridis (SETVI)): 97%
% herbicidal activity (Sorghum bicolor (SORVU) [22]): 93%
